Measurements: the Kinase Knowledgebase extract (Sharma et al. 2016)
pIC50: −log10 of the molar value.

target: PIK3CA (UniProt P42336); experiment: In Vitro Inhibition of PIK3CA Kinase Activity
Sequence (P42336 whole entry, looked up): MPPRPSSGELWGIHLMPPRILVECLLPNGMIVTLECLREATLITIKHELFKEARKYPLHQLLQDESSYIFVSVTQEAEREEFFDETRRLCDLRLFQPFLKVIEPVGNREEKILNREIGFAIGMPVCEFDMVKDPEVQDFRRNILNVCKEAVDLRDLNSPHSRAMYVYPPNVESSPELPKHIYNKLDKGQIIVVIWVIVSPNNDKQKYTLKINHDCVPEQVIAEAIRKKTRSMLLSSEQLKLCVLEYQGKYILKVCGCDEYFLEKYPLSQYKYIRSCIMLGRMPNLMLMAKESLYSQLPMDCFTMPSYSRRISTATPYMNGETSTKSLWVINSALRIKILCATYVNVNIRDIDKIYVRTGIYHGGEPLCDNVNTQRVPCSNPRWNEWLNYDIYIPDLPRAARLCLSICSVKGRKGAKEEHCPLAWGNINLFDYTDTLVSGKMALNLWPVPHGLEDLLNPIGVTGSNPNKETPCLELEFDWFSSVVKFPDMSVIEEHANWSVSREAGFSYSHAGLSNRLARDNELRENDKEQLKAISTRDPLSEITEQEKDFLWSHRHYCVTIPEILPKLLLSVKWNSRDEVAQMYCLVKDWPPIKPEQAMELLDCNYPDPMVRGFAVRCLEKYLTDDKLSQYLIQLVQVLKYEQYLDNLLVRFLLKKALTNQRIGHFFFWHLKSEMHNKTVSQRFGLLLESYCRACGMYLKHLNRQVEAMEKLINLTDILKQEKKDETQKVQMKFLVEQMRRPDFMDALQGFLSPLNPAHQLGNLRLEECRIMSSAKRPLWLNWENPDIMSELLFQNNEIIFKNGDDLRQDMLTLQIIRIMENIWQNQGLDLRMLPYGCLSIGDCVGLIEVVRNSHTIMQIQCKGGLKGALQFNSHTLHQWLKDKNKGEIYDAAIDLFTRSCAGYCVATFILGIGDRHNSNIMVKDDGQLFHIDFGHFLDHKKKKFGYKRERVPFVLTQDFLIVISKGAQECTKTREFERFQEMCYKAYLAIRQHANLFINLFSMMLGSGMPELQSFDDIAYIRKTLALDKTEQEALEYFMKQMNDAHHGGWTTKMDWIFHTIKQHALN

| SMILES | pIC50 |
| --- | --- |
| CC(C)(C)c1ccc(-c2cc(=O)cc(N3CCOCC3)o2)cc1 | 4.43 |
| O=c1cc(N2CCSCC2)oc2c1ccc1ccccc12 | 5.22 |
| O=c1cc(N2CCOCC2)oc2cc3ccccc3cc12 | 4.80 |
| O=c1cc(N2CCOCC2)oc2cc(OCc3ccc(F)cc3)ccc12 | 4.02 |
| COc1ccc(-c2cc(=O)cc(N3CCOCC3)o2)cc1 | 4.82 |
| O=c1cc(N2CCOCC2)oc2c3c(ccc12)CCCC3 | 4.74 |
| O=C1c2ccccc2C(=O)N1CCCOc1ccc2c(=O)cc(N3CCOCC3)oc2c1 | 5.22 |
| O=c1cc(-c2ccc(F)cc2)oc(N2CCOCC2)c1 | 4.89 |
| O=c1cc(-c2ccccc2)oc(N2CCOCC2)c1 | 4.52 |
| O=c1cc(N2CCOCC2)oc2c1ccc1ccccc12 | 4.70 |
| O=c1cc(N2CCOCC2)oc2ccc3ccccc3c12 | 4.96 |
| CC1CN(c2cc(=O)c3ccc4ccccc4c3o2)CCO1 (stereo not given) | 5.60 |
| O=c1cc(-c2ccc(Cl)cc2)oc(N2CCOCC2)c1 | 5.00 |
| O=c1cc(N2CCOCC2)nc2c3ccccc3ccn12 | 3.12 |
| O=c1cc(N2CCOCC2)oc2cc(OCc3ccc(Cl)cc3)ccc12 | < 4.00 |
